Source: patent US9029337B2, “Modulation of factor 7 expression” (Isis Pharmaceuticals, Inc., priority 2007, dated 2015)
Strand notation (5' to 3'): a small letter for the sugar, then the base; units joined by * are phosphorothioate-linked, units joined directly phosphodiester-linked; [ ] holds rarer units or linkages, { } end groups; capitals alone tell only the bases. e = 2'-O-(2-methoxyethyl) (MOE); [5mC] = 5-methylcytosine; d = 2'-deoxy (DNA)

These substances were tested on human Factor 7 mRNA (assay: Antisense inhibition of human Factor 7 mRNA in HepB3 cells, 50 nM antisense oligonucleotide, lipofectin). Details: Table 1, 50 nM, lipofectin, approximately 24 hours, relative to untreated control cells.
Format: cell-based
Method in brief: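 After transfection of wells containing 4,000 cells, treatment ran for approximately 24 h. RIBOGREEN®-measured total RNA served for normalisation, and inhibition was calculated as a percentage of untreated control.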
For “407630 (antisense e[5mC]*eA*e[5mC]*eA*eT*dG*dG*dT*d[5mC]*dA*dG*dT*dG*dA*dG*eG*eA*e[5mC]*e[5mC]*eA) [compound 407630]”, the “% Inhibition” value was 29%. In the case of “407956 (antisense eA*eA*e[5mC]*eT*eT*dG*d[5mC]*dA*dT*dT*dT*dA*dG*dT*dG*eA*eT*eG*e[5mC]*eG) [compound 407956]”, the “% Inhibition” value is reported as 19%. With “407636 (antisense eG*e[5mC]*eA*eG*e[5mC]*d[5mC]*d[5mC]*dT*dG*dG*d[5mC]*d[5mC]*d[5mC]*d[5mC]*dA*eG*e[5mC]*eT*eG*eA) [compound 407636]” the “% Inhibition” value was 75%. “407616 (antisense eT*eG*e[5mC]*eA*eG*dG*dA*d[5mC]*dA*d[5mC]*d[5mC]*d[5mC]*d[5mC]*dG*dT*e[5mC]*eT*eG*e[5mC]*e[5mC]) [compound 407616]” was tested, and the “% Inhibition” value was 64%. In the case of “407650 (antisense e[5mC]*e[5mC]*eA*eT*eG*dT*dG*dA*dG*dG*dG*dT*dT*d[5mC]*dA*eT*eT*eT*e[5mC]*eA) [compound 407650]”, the “% Inhibition” value is reported as 39%. “407940 (antisense eT*eG*eT*eG*eA*dA*dG*d[5mC]*dT*dG*dG*dG*dA*dA*dG*e[5mC]*eA*eG*eG*eT) [compound 407940]” was tested, and the “% Inhibition” value was 62%. In the case of “407621 (antisense eA*e[5mC]*eA*eA*e[5mC]*dA*dG*dG*dA*d[5mC]*d[5mC]*dT*dG*d[5mC]*d[5mC]*eA*eT*eG*eG*eA) [compound 407621]”, the “% Inhibition” value is reported as 62%. With “407665 (antisense eG*eT*eT*eA*e[5mC]*dG*dA*dA*dG*dA*d[5mC]*dT*dG*dG*dG*eA*eA*eA*eT*eG) [compound 407665]” the “% Inhibition” value was 29%. “407623 (antisense eT*e[5mC]*e[5mC]*eA*eT*dT*d[5mC]*dA*d[5mC]*d[5mC]*dA*dA*d[5mC]*dA*dA*e[5mC]*eA*eG*eG*eA) [compound 407623]” was tested, and the “% Inhibition” value was 69%. For “407933 (antisense eT*eG*eA*eT*eA*dA*dT*dG*dG*dA*dT*dA*dA*dG*dA*eA*e[5mC]*e[5mC]*eA*eG) [compound 407933]”, the “% Inhibition” value was 58%. “407953 (antisense eA*e[5mC]*eA*eT*e[5mC]*d[5mC]*dA*dA*dT*dT*d[5mC]*d[5mC]*dA*d[5mC]*dA*eG*eG*eA*eT*e[5mC]) [compound 407953]” was tested, and the “% Inhibition” value was 20%.

Same assay, conditions: Table 6, 50 nM, lipofectin, approximately 24 hours
In the case of “422274 (antisense eT*eT*dA*d[5mC]*dT*dG*dA*dG*d[5mC]*dG*d[5mC]*dG*dG*dA*dA*eG*eA*eA*eG*eG) [compound 422274]”, the “% Inhibition” value is reported as 24%. With “422127 (antisense eT*eA*e[5mC]*eT*eG*dA*dG*d[5mC]*dG*d[5mC]*dG*dG*dA*dA*dG*eA*eA*eG*eG*eG) [compound 422127]” the “% Inhibition” value was 17%. For “422125 (antisense e[5mC]*eT*eG*eA*eG*d[5mC]*dG*d[5mC]*dG*dG*dA*dA*dG*dA*dA*eG*eG*eG*eA*e[5mC]) [compound 422125]”, the “% Inhibition” value was 8%. With “422124 (antisense eT*eG*eA*eG*e[5mC]*dG*d[5mC]*dG*dG*dA*dA*dG*dA*dA*dG*eG*eG*eA*e[5mC]*eG) [compound 422124]” the “% Inhibition” value was 0%. With “422117 (antisense eG*eG*eA*eA*eG*dA*dA*dG*dG*dG*dA*d[5mC]*dG*dG*dA*eA*eG*eG*eT*eG) [compound 422117]” the “% Inhibition” value was 1%.

Same assay, conditions: gapmers targeted to nucleobases 4868 to 4899 of SEQ ID NO: 1, Table 8
In the case of “422300 (antisense eG*eA*dG*d[5mC]*d[5mC]*d[5mC]*dG*dA*dG*dT*dT*d[5mC]*dT*dG*d[5mC]*eA*eG*eG*eA*eG) [compound 422300]”, the “% Inhibition of human Factor 7 mRNA levels” value is reported as 65%. With “422302 (antisense eA*eG*dG*dA*dG*d[5mC]*d[5mC]*d[5mC]*dG*dA*dG*dT*dT*d[5mC]*dT*eG*e[5mC]*eA*eG*eG) [compound 422302]” the “% Inhibition of human Factor 7 mRNA levels” value was 67%. “422297 (antisense e[5mC]*e[5mC]*d[5mC]*dG*dA*dG*dT*dT*d[5mC]*dT*dG*d[5mC]*dA*dG*dG*eA*eG*e[5mC]*eG*eG) [compound 422297]” was tested, and the “% Inhibition of human Factor 7 mRNA levels” value was 63%. For “422146 (antisense eA*eG*e[5mC]*e[5mC]*e[5mC]*dG*dA*dG*dT*dT*d[5mC]*dT*dG*d[5mC]*dA*eG*eG*eA*eG*e[5mC]) [compound 422146]”, the “% Inhibition of human Factor 7 mRNA levels” value was 58%. For “422143 (antisense e[5mC]*e[5mC]*eG*eA*eG*dT*dT*d[5mC]*dT*dG*d[5mC]*dA*dG*dG*dA*eG*e[5mC]*eG*eG*e[5mC]) [compound 422143]”, the “% Inhibition of human Factor 7 mRNA levels” value was 70%.

Same assay, conditions: lipofectin, 50 nM antisense oligonucleotide, approximately 24 hours, Factor 7 mRNA by real-time RT-PCR (RTS 2927), relative to untreated control
For “416473 (antisense e[5mC]*e[5mC]*e[5mC]*eT*eG*d[5mC]*d[5mC]*d[5mC]*d[5mC]*dT*d[5mC]*dT*dG*dT*d[5mC]*e[5mC]*eA*eG*e[5mC]*eG) [compound 416473]”, the “% Inhibition” value was 61%. For “416543 (antisense eT*e[5mC]*e[5mC]*eT*eG*d[5mC]*dG*dA*dG*dT*dG*dG*dG*dA*dG*eT*eT*eG*eG*eA) [compound 416543]”, the “% Inhibition” value was 0%. In the case of “416550 (antisense eT*eG*eG*e[5mC]*eT*dG*dG*d[5mC]*dT*dG*dA*dG*dG*dA*dG*eA*e[5mC]*eA*eA*eT) [compound 416550]”, the “% Inhibition” value is reported as 55%. “416434 (antisense e[5mC]*eT*eG*eT*eA*dA*dG*dA*dA*dA*dT*d[5mC]*d[5mC]*dA*dG*eA*eA*e[5mC]*eA*eG) [compound 416434]” was tested, and the “% Inhibition” value was 0%. With “416518 (antisense eG*eG*eG*eT*eG*dA*d[5mC]*d[5mC]*dA*d[5mC]*dA*d[5mC]*dA*dT*dT*eT*e[5mC]*e[5mC]*eT*eG) [compound 416518]” the “% Inhibition” value was 55%. For “416470 (antisense eG*e[5mC]*eT*eT*eT*dT*dG*d[5mC]*dA*dG*d[5mC]*d[5mC]*dA*d[5mC]*dT*e[5mC]*eG*eA*eT*eG) [compound 416470]”, the “% Inhibition” value was 39%. With “416433 (antisense eA*eG*eA*eA*eA*dT*d[5mC]*d[5mC]*dA*dG*dA*dA*d[5mC]*dA*dG*e[5mC]*eT*eT*e[5mC]*eG) [compound 416433]” the “% Inhibition” value was 0%. With “416474 (antisense eT*eG*eT*e[5mC]*eT*dG*d[5mC]*d[5mC]*dT*d[5mC]*d[5mC]*dA*dG*dG*dA*e[5mC]*eA*eA*e[5mC]*e[5mC]) [compound 416474]” the “% Inhibition” value was 40%. With “416489 (antisense eG*eT*eG*e[5mC]*eA*dG*d[5mC]*dT*dT*dG*d[5mC]*d[5mC]*dA*dG*dG*eT*e[5mC]*e[5mC]*eT*e[5mC]) [compound 416489]” the “% Inhibition” value was 38%. With “416431 (antisense eA*eG*eG*eG*eA*dG*d[5mC]*d[5mC]*d[5mC]*dG*dG*d[5mC]*d[5mC]*dG*d[5mC]*eA*eG*e[5mC]*eT*e[5mC]) [compound 416431]” the “% Inhibition” value was 25%. “416471 (antisense eT*eG*eA*eG*e[5mC]*dT*dT*dT*dT*dG*d[5mC]*dA*dG*d[5mC]*d[5mC]*eA*e[5mC]*eT*e[5mC]*eG) [compound 416471]” was tested, and the “% Inhibition” value was 62%. For “416490 (antisense eA*e[5mC]*eT*e[5mC]*eA*dG*d[5mC]*dA*dA*dG*dA*dG*dT*dG*d[5mC]*eA*eG*e[5mC]*eT*eT) [compound 416490]”, the “% Inhibition” value was 33%. In the case of “416484 (antisense eT*eA*e[5mC]*eA*eG*d[5mC]*d[5mC]*dT*d[5mC]*dA*dA*dA*d[5mC]*dA*dT*e[5mC]*eT*eA*eT*e[5mC]) [compound 416484]”, the “% Inhibition” value is reported as 0%. With “416526 (antisense eT*eG*eT*e[5mC]*e[5mC]*dA*d[5mC]*dA*dT*dG*dA*d[5mC]*d[5mC]*d[5mC]*d[5mC]*eA*e[5mC]*eA*eG*eG) [compound 416526]” the “% Inhibition” value was 19%. In the case of “416441 (antisense eA*eG*eA*eT*eA*dT*dA*dG*dG*dA*d[5mC]*dT*dG*dG*dA*eG*e[5mC]*eT*eG*eG) [compound 416441]”, the “% Inhibition” value is reported as 32%.

Same assay, conditions: oligonucleotides targeted to nucleobases 11830 to 11869 of SEQ ID NO: 1 (Table 9)
In the case of “422248 (antisense eG*eG*d[5mC]*dT*dG*dA*dG*dG*dA*dG*dA*d[5mC]*dA*dA*dT*eG*eG*eT*e[5mC]*eA) [compound 422248]”, the “% Inhibition (human Factor 7 mRNA levels)” value is reported as 60%. For “422103 (antisense eG*e[5mC]*eT*eG*eA*dG*dG*dA*dG*dA*d[5mC]*dA*dA*dT*dG*eG*eT*e[5mC]*eA*eG) [compound 422103]”, the “% Inhibition (human Factor 7 mRNA levels)” value was 38%. “422093 (antisense eA*eA*eT*eG*eG*dT*d[5mC]*dA*dG*dG*dG*d[5mC]*dT*dG*dG*eT*eT*eT*eT*eG) [compound 422093]” was tested, and the “% Inhibition (human Factor 7 mRNA levels)” value was 42%.

Same assay, conditions: oligonucleotides targeted to nucleobases 13760 to 13789 of SEQ ID NO: 1 (Table 10)
“422175 (antisense e[5mC]*eG*e[5mC]*d[5mC]*dG*dG*d[5mC]*dT*d[5mC]*dT*dG*d[5mC]*dT*d[5mC]*dA*dT*d[5mC]*e[5mC]*e[5mC]*e[5mC]) [compound 422175]” was tested, and the “% Inhibition (human Factor 7 mRNA levels)” value was 69%.

Same assay, conditions: oligonucleotides targeted to nucleobases 14707 to 14732 of SEQ ID NO: 1 (Table 11)
In the case of “422281 (antisense eG*e[5mC]*dA*dG*d[5mC]*d[5mC]*dT*dG*dA*dG*dG*d[5mC]*d[5mC]*dA*dG*e[5mC]*eA*eG*eA*eT) [compound 422281]”, the “% Inhibition (human Factor 7 mRNA levels)” value is reported as 57%. In the case of “422203 (antisense e[5mC]*eA*eG*d[5mC]*d[5mC]*dT*dG*dA*dG*dG*d[5mC]*d[5mC]*dA*dG*d[5mC]*dA*dG*eA*eT*e[5mC]) [compound 422203]”, the “% Inhibition (human Factor 7 mRNA levels)” value is reported as 52%.

Same assay, conditions: oligonucleotides targeted to nucleobases 15098 to 15122 of SEQ ID NO: 1 (Table 12)
For “422285 (antisense eG*e[5mC]*dA*d[5mC]*dA*d[5mC]*dA*dT*dG*dG*dA*dG*dT*d[5mC]*dA*eG*e[5mC]*eA*eT*e[5mC]) [compound 422285]”, the “% Inhibition (human Factor 7 mRNA levels)” value was 39%. In the case of “422288 (antisense eA*e[5mC]*dA*dG*d[5mC]*dA*d[5mC]*dA*d[5mC]*dA*dT*dG*dG*dA*dG*eT*e[5mC]*eA*eG*e[5mC]) [compound 422288]”, the “% Inhibition (human Factor 7 mRNA levels)” value is reported as 44%. In the case of “422289 (antisense eG*eA*d[5mC]*dA*dG*d[5mC]*dA*d[5mC]*dA*d[5mC]*dA*dT*dG*dG*dA*eG*eT*e[5mC]*eA*eG) [compound 422289]”, the “% Inhibition (human Factor 7 mRNA levels)” value is reported as 34%.
